This experiment concerns the target Human recombinant Histone Deacetylase 8 (HDAC8) (Homo sapiens (Human), UniProt Q9BY41). The experiment can be described thus: HDAC8 Enzymatic Assay (HDAC-Glo I/II luminescence). Format: biochemical. The method in brief:
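Human recombinant HDAC8 (1.5 nM final) preincubated with compound for 30 min, then reacted with 50 μM Boc-GAK(Ac)-aminoluciferin plus trypsin-containing developer for 15 min at room temperature, pH 8.0, 0.5% DMSO. Luminescence read-out; IC50 from percent control activity versus log concentration.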

[1] abbreviates: class symbols, Table 14, read-out: HDAC8 IC50.

Where two headings read alike, the source gives them in different places. Bounds are passed on as bounds.

Human recombinant Histone Deacetylase 8 (HDAC8), sequence (Q9BY41 whole entry): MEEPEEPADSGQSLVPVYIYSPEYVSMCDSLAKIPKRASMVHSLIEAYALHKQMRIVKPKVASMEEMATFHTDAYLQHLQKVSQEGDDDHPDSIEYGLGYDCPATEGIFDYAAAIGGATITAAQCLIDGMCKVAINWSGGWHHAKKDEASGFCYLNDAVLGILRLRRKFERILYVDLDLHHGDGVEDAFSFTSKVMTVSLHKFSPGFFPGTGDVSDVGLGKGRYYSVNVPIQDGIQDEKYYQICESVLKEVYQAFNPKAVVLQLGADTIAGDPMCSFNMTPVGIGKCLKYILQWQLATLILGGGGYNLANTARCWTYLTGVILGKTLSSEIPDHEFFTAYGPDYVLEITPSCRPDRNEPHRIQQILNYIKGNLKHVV

As a reminder, the IC50 is the point on the concentration scale where inhibition reaches its midpoint. `O=C(NO)C(Cc1ccccc1)n1cc2cccc(CN3CCC(F)(F)CC3)c2n1` (centres unmarked) [Compound I-0189, 2-(7-((4,4-difluoropiperidin-1-yl)methyl)-2H-indazol-2-yl)-N-hydroxy-3-phenylpropanamide]: the concentration for half-maximal inhibition (IC50) under setting [1] lay within 200 to 500 nM. The same measure, in the same setting: with `CN1CC=C(c2cccc3nn(C(Cc4ccccc4)C(=O)NO)cc23)CC1` (centres unmarked) [Compound I-0057, N-hydroxy-2-(4-(1-methyl-1,2,3,6-tetrahydropyridin-4-yl)-2H-indazol-2-yl)-3-phenylpropanamide] the figure was > 500 nM; with `O=C(NO)C(Cc1ccccc1)n1nc2c(-c3cccnc3)cccc2c1C#CC1CC1` (centres unmarked) [Compound I-0155, 2-(3-(cyclopropylethynyl)-7-(pyridin-3-yl)-2H-indazol-2-yl)-N-hydroxy-3-phenylpropanamide], ≤ 50 nM; with `O=C(NO)C(Cc1ccccc1)n1cc2c(C3CC3)cccc2n1` (centres unmarked) [Compound I-0062, 2-(4-cyclopropyl-2H-indazol-2-yl)-N-hydroxy-3-phenylpropanamide], > 500 nM. Consider `O=C(NO)C(Cc1ccccc1)n1ncc2cc(C3CC3)ncc21` (centres unmarked) [Compound I-0098, 2-(5-cyclopropyl-1H-pyrazolo[3,4-c]pyridin-1-yl)-N-hydroxy-3-phenylpropanamide], for which the IC50 under setting [1] was > 500 nM. Still for that read-out and setting: with `Cn1nc(C(Cc2ccccc2)C(=O)NO)c2ccc(-c3ccncc3)cc21` (centres unmarked) [Compound I-0205, N-hydroxy-2-(1-methyl-6-(pyridin-4-yl)-1H-indazol-3-yl)-3-phenylpropanamide] the figure was 50 to 200 nM. Take `O=C(NO)C(Cc1ccccc1)n1nc2ccc(-c3cncnc3)cc2c1C#CC1CC1` (centres unmarked) [Compound I-0030, 2-(3-(cyclopropylethynyl)-5-(pyrimidin-5-yl)-2H-indazol-2-yl)-N-hydroxy-3-phenylpropanamide]: under setting [1], the IC50 is ≤ 50 nM. The same measure, in the same setting: with `O=C(NO)C(Cc1ccccc1)n1nc(C#CC2CC2)c2cc(Cl)ccc21` (centres unmarked) [Compound I-0009, 2-(5-chloro-3-(cyclopropylethynyl)-1H-indazol-1-yl)-N-hydroxy-3-phenylpropanamide] the figure was 50 to 200 nM; with `Cc1ccc2cn(C(Cc3ccccc3)C(=O)NO)nc2c1` (centres unmarked) [Compound I-0040, N-hydroxy-2-(6-methyl-2H-indazol-2-yl)-3-phenylpropanamide], > 500 nM. Same read-out and setting: with `Cn1nccc1-c1cccc2c1cnn2C(Cc1ccccc1)C(=O)NO` (centres unmarked) [Compound I-0083, N-hydroxy-2-(4-(1-methyl-1H-pyrazol-5-yl)-1H-indazol-1-yl)-3-phenylpropanamide] the figure was 50 to 200 nM; with `Cc1nn(C)c(C)c1-c1ccc2c(cnn2C(Cc2ccccc2)C(=O)NO)c1` (centres unmarked) [Compound I-0103, N-hydroxy-3-phenyl-2-(5-(1,3,5-trimethyl-1H-pyrazol-4-yl)-1H-indazol-1-yl)propanamide], 200 to 500 nM.

On to `O=C(NO)C(Cc1ccccc1)n1cc2cccc(-c3ccccc3)c2n1` (centres unmarked) [Compound I-0066, N-hydroxy-3-phenyl-2-(7-phenyl-2H-indazol-2-yl)propanamide], for which the 50% inhibitory concentration (IC50) under setting [1] is > 500 nM. The same measure, in the same setting: in the case of `O=C(NO)C(Cc1ccccc1)n1cc2cccc(CNC3CCOCC3)c2n1` (centres unmarked) [Compound I-0182, N-hydroxy-3-phenyl-2-(7-((tetrahydro-2H-pyran-4-ylamino)methyl)-2H-indazol-2-yl)propanamide] it was > 500 nM; in that of `CN1CC=C(c2cccc3c2cnn3C(Cc2ccccc2)C(=O)NO)CC1` (centres unmarked) [Compound I-0085, N-hydroxy-2-(4-(1-methyl-1,2,3,6-tetrahydropyridin-4-yl)-1H-indazol-1-yl)-3-phenylpropanamide], 200 to 500 nM. Still for that read-out and setting: in the case of `CN1CCN(c2ccc(-c3ccn4c(C(Cc5ccccc5)C(=O)NO)cnc4c3)cc2)CC1` (centres unmarked) [Compound I-0151, N-hydroxy-2-(7-(4-(4-methylpiperazin-1-yl)phenyl)imidazo[1,2-a]pyridin-3-yl)-3-phenylpropanamide] it was > 500 nM; in that of `Cn1nccc1-c1ccn2c(C(Cc3ccccc3)C(=O)NO)cnc2c1` (centres unmarked) [Compound I-0115, N-hydroxy-2-(7-(1-methyl-1H-pyrazol-5-yl)imidazo[1,2-a]pyridin-3-yl)-3-phenylpropanamide], 200 to 500 nM; in that of `CN(C)C(=O)c1ccc(-c2cccn3c(C(Cc4ccccc4)C(=O)NO)cnc23)cc1` (centres unmarked) [Compound I-0168, 4-(3-(1-(hydroxyamino)-1-oxo-3-phenylpropan-2-yl)imidazo[1,2-a]pyridin-8-yl)-N,N-dimethylbenzamide], > 500 nM. On the same count and under the same terms, in the case of `NC(=O)c1ccc(-c2cnc3c(cnn3C(Cc3ccccc3)C(=O)NO)c2)cc1` (centres unmarked) [Compound I-0118, 4-(1-(1-(hydroxyamino)-1-oxo-3-phenylpropan-2-yl)-1H-pyrazolo[3,4-b]pyridin-5-yl)benzamide] it was 200 to 500 nM. Turning to `O=C(NO)C(Cc1ccccc1)n1nc2c(Cl)nccc2c1C#CC1CC1` (centres unmarked) [Compound I-0127, 2-[7-Chloro-3-(cyclopropylethynyl)-2H-pyrazolo[3,4-c]pyridin-2-yl]-N-hydroxy-3-phenylpropanamide], the IC50 was 5.7 nM (HDAC8, read-out: IC50) and ≤ 50 nM under setting [1].
